Data published in patent publication US7871635B2, “Use of compound that inactivates protein kinase A in a composition containing a cosmetically acceptable medium for lightening the skin” (Societe d'Exploitation de Produits pour les Industries …, priority 2002, dated 2011).

Legend:
Adenylate cyclase = assay: Study of adenylate cyclase activation (ATP to cAMP, radioimmunological assay); assay type: biochemical, rat; details: 1 mg/ml; for Enzymatic activity relative to the control (adenylate cyclase): forskolin 10 μM, ATP 0.5 mM, 30 minutes at 30° C.
Method: The influence of N-undecylenoylphenylalanine, kojic acid and arbutin on the conversion of ATP into cAMP was compared via a radioimmunological assay.
Adenylate cyclase, which converts ATP into cAMP, is extracted from rat brains via the method described in “Salamon Y., Londos C. and Rodbell M.; Anal. Biochem., 58, 1974, 541-548”; it is then activated with 10 μM of forskolin.
They are each tested separately at a concentration of 1 mg/ml. Sodium hydroxide has no effect on the parameter studied.
The activated enzyme is incubated, in the presence or absence of these products, and in the presence of 0.5 mM of ATP, for 30 minutes at 30° C.
Control cultures are incubated, in the absence of product, and in the presence of ATP. Each test is performed in triplicate.
After incubation for 30 minutes, the amount of cAMP produced is evaluated via a radioimmunological assay performed using a commercial kit; the radioactivity is measured with a scintillation counter (Topcount, Packard), a small radioactivity count reflecting small activation of adenylate cyclase.
The results given in the table below are the means of the three tests performed for each of the products. They are expressed as a percentage of enzymatic activity relative to the control group and as a percentage of inhibition.

[1] = tested on: B16/F1 melanocyte cultures; assay: Extracellular melanin content in B16/F1 melanocyte cultures; assay type: cell-based, mouse; details: 72 hours; for Extracellular melanin: control 43 ± 11 μg/ml
Method: Mouse melanocytes of the B16/F1 line are inoculated in 96-well culture plates at a density of 1500 cells/well. […] The cells are used at 60% of confluence, i.e. 4 days after inoculation. The MCM medium has the following composition: […] N-Undecylenoylphenylalanine is diluted to 4 mg/ml in decinormal aqueous sodium hydroxide solution. It is tested at 40 μg/ml in the MCM medium. Sodium hydroxide has no effect on the parameters analyzed. […] Given its toxicity, it is not tested at 40 μg/ml. […] Control cultures are incubated, in the absence of product, in the MCM medium. These control cultures are prepared on each culture plate. Each test is performed six times. After incubation for 72 hours, the incubation media of the cells (n=6) are taken up and stored at -80° C. until the time of evaluation of the effects. The extracellular melanin is quantified by spectrophotometry at 450 nm. A melanin calibration range is prepared in parallel. The results are expressed as μg/ml of extracellular […] a percentage of inhibition relative to the control group.

[2] = tested on: B16/F1 melanocyte cultures; assay: Intracellular melanin content in B16/F1 melanocyte cultures; assay type: cell-based, mouse; details: 72 hours; for Intracellular melanin obtained: control 20 ± 4 μg/ml
Method: Mouse melanocytes of the B16/F1 line are inoculated in 96-well culture plates at a density of 1500 cells/well. […] The cells are used at 60% of confluence, i.e. 4 days after inoculation. The MCM medium has the following composition: […] N-Undecylenoylphenylalanine is diluted to 4 mg/ml in decinormal aqueous sodium hydroxide solution. It is tested at 40 μg/ml in the MCM medium. Sodium hydroxide has no effect on the parameters analyzed. […] Given its toxicity, it is not tested at 40 μg/ml. […] Control cultures are incubated, in the absence of product, in the MCM medium. These control cultures are prepared on each culture plate. Each test is performed six times. After incubation for 72 hours, a portion of the cell carpet (n=3) is rinsed with phosphate-buffered saline (PBS; pH=7.4), the composition of which is as follows: NaCl: 8 g/l, Na2HPO4: 1.15 g/l; […] The intracellular melanin is quantified by spectrophotometry at 450 nm. A melanin calibration range is prepared in parallel. The results are expressed as μg/ml of intracellular melanin and as a percentage of inhibition relative to the control group.

endogenous tyrosinase = assay: Phosphorylated tyrosinase activity in B16/F1 melanocyte lysates; assay type: cell-based, mouse; details: 72 hours; for Tyrosinase activity: control 9.8 ± 0.3 IU/ml
Method: Mouse melanocytes of the B16/F1 line are inoculated in 96-well culture plates at a density of 1500 cells/well. The cells are cultured in a culture medium (MCM medium) at 37° C. under a humid atmosphere containing 5% CO2. The cells are used at 60% of confluence, i.e. 4 days after inoculation.
The MCM medium has the following composition: DMEM medium (Dulbecco's Modified Eagle's Medium) containing 4.5 g/l of glucose supplemented with L-glutamine (2 mM), penicillin (50 IU/ml), streptomycin (50 μg/ml) and fetal calf serum (10% v/v).
N-Undecylenoylphenylalanine is diluted to 4 mg/ml in decinormal aqueous sodium hydroxide solution. […]
The melanocyte cultures are incubated in the presence of the test product or of the reference products for 72 hours at 37° C., under a humid atmosphere containing 5% CO2.
Control cultures are incubated, in the absence of product, in the MCM medium. These control cultures are prepared on each culture plate.
Each test is performed six times.
After incubation for 72 hours, the second portion of the cell carpet (n=3) is rinsed with PBS. The cells are lyzed with Triton™ X100 at a concentration of 0.1% (w/v) for 30 minutes at room temperature. The activity of the endogenous tyrosinase is evaluated by adding 0.1% (w/v) of L-dopa, followed by incubation for 3 hours at 37° C. in the absence of air and light. The dopaquinone formed by the reaction between the tyrosinase and the L-dopa is measured by spectrophotometry at 450 nm. A calibration range of purified tyrosinase is prepared in parallel.
The results are expressed as IU/ml of tyrosinase activity and as a percentage of inhibition relative to the control group.

[3] = tested on: B16/F1 melanocyte cultures; assay: Intracellular protein content (cytotoxicity) in B16/F1 melanocyte cultures; assay type: cell-based, mouse
Method: Mouse melanocytes of the B16/F1 line are inoculated in 96-well culture plates at a density of 1500 cells/well. […] The cells are used at 60% of confluence, i.e. 4 days after inoculation. The MCM medium has the following composition: […] N-Undecylenoylphenylalanine is diluted to 4 mg/ml in decinormal aqueous sodium hydroxide solution. It is tested at 40 μg/ml in the MCM medium. Sodium hydroxide has no effect on the parameters analyzed. […] Given its toxicity, it is not tested at 40 μg/ml. […] Control cultures are incubated, in the absence of product, in the MCM medium. These control cultures are prepared on each culture plate. Each test is performed six times. This assay allows the cytotoxicity of the test products to be evaluated. It is performed in cell lysates prepared as described in the preceding paragraph. The protein assay is performed according to the Coomassie blue method described by: “Bradford M.; Anal. Biochem., 72, 1976, 248-254”. The measurement is performed by spectrophotometry at 640 nm. A bovine serum albumin (BSA) calibration range is prepared in parallel. The results are expressed as mg/ml of proteins and as a percentage of inhibition relative to the control group.

[4] = Mus musculus, B16-F1, at 40 μg/ml, read-out: Inhibition of extracellular melanin production
[5] = Mus musculus, B16-F1, at 40 μg/ml, read-out: Inhibition of intracellular melanin production
[6] = at 40 μg/ml, 72 hours, control 0.45 ± 0.01

| Structure (SMILES) | Inhibition of adenylate cyclase activity (Adenylate cyclase) | Enzymatic activity relative to the control (adenylate cyclase) (Adenylate cyclase) | inhibition at 40 µg/mL [1, 4] | Extracellular melanin ([1]; at 40 μg/ml) | inhibition at 40 µg/mL [2, 5] | Intracellular melanin obtained ([2]; at 40 μg/ml) | Inhibition of tyrosinase activity (endogenous tyrosinase; at 40 μg/ml) | Tyrosinase activity (endogenous tyrosinase; at 40 μg/ml) | Total proteins [3, 6] | other results |
| --- | --- | --- | --- | --- | --- | --- | --- | --- | --- | --- |
| OC[C@H]1O[C@@H](Oc2ccc(O)cc2)[C@H](O)[C@@H](O)[C@@H]1O [Arbutin, arbutin] | 0% | 109.7 ± 4.6% | 47% | 23 ± 6 µg/mL | 19% | 16 ± 2 µg/mL | 23% | 7.6 ± 1.1 IU/ml | 0.43 ± 0.01 mg/mL | Inhibition of adenylate cyclase activity (Adenylate cyclase; listed as arbutin): no effect |
| Oc1ccc(O)cc1 [Hydroquinone, hydroquinone] | – | – | – | – | – | – | – | – | – | inhibition at 5 µg/mL ([1]; Mus musculus, B16-F1, at 5 μg/ml, read-out: Inhibition of extracellular melanin production): 85%; Extracellular melanin ([1]; at 5 μg/ml): 7 ± 1 µg/mL; inhibition at 5 µg/mL ([2]; Mus musculus, B16-F1, at 5 μg/ml, read-out: Inhibition of intracellular melanin production): 100%; Intracellular melanin obtained ([2]; at 5 μg/ml): 0.2 ± 0.1 µg/mL; Inhibition of tyrosinase activity (endogenous tyrosinase; at 5 μg/ml): 69%; Tyrosinase activity (endogenous tyrosinase; at 5 μg/ml): 3.0 ± 0.3 IU/ml; Inhibition of protein quantity ([3]; mouse, 72 h, 5 μg/ml): 38%; Total proteins ([3]; mouse, 72 h, 5 μg/ml): 0.28 ± 0.01 mg/mL |
| O=c1cc(CO)occ1O [Kojic acid, kojic acid] | 55% | – | 70% | 13 ± 2 µg/mL | 17% | 17 ± 1 µg/mL | – | – | – | Inhibition of adenylate cyclase activity (Adenylate cyclase; listed as kojic acid): moderate effect; Total proteins ([3]; mouse, 72 h, 40 μg/ml): 0.41 ± 0.02 mg/mL |
| C=CCCCCCCCCC(=O)NC(Cc1ccccc1)C(=O)O (stereo not drawn) [N-Undecylenoylphenylalanine, N-(ω-undecylenoyl)phenylalanine] | 100% | −16.0 ± 0.5% | 72% | 12 ± 1 µg/mL | 66% | 7 ± 3 µg/mL | 67% | 3.2 ± 0.6 IU/ml | 0.38 ± 0.01 mg/mL | Inhibition of adenylate cyclase activity (Adenylate cyclase; listed as N-undecylenoylphenylalanine): total inactivation; Inhibition of protein quantity ([3]; at 40 μg/ml, 72 hours): 17% |
